# Reference: US20250255883A1, “Compositions and Methods for Treating Aging Hair” (CHL Industries, LLC, priority 2021, published 2025)
# System: Normal human keratinocytes (HEKa)
# Test: Real-time quantitative PCR gene expression in normal human keratinocytes treated for 24 hours
# Format: cell-based
# Conditions: vs. water-treated control
substance,measurement,setting,value
diethyl ester of copper (II) chlorin e6 [DECCE6],Fold Up- or Down-Regulation 18S,"gene 18S (housekeeping), 20 ug/mL",1.2 Fold
same,Fold Up- or Down-Regulation AQP3,"gene AQP3, 20 ug/mL",5.5 Fold
same,Fold Up- or Down-Regulation AREL1,"gene AREL1, 20 ug/mL",−5.8 Fold
same,Fold Up- or Down-Regulation ARRDC3,"gene ARRDC3, 20 ug/mL",1.9 Fold
same,Fold Up- or Down-Regulation BAMBI,"gene BAMBI, 20 ug/mL",1.3 Fold
same,Fold Up- or Down-Regulation CCL20,"gene CCL20, 20 ug/mL",2.6 Fold
same,Fold Up- or Down-Regulation CDKN1A,"gene CDKN1A, 20 ug/mL",−1.4 Fold
same,Fold Up- or Down-Regulation CSF1,"gene CSF1, 20 ug/mL",1.1 Fold
same,Fold Up- or Down-Regulation CSF2,"gene CSF2, 20 ug/mL",−1.1 Fold
same,Fold Up- or Down-Regulation CXCL1,"gene CXCL1, 20 ug/mL",2.7 Fold
same,Fold Up- or Down-Regulation CXCL2,"gene CXCL2, 20 ug/mL",3.0 Fold
same,Fold Up- or Down-Regulation CXCL3,"gene CXCL3, 20 ug/mL",−1.1 Fold
same,Fold Up- or Down-Regulation CXCL8,"gene CXCL8, 20 ug/mL",1.3 Fold
same,Fold Up- or Down-Regulation CXCL10,"gene CXCL10, 20 ug/mL",7.6 Fold
same,Fold Up- or Down-Regulation CYB561,"gene CYB561, 20 ug/mL",−1.2 Fold
same,Fold Up- or Down-Regulation CYP1A1,"gene CYP1A1, 20 ug/mL",2.8 Fold
same,Fold Up- or Down-Regulation DDX5,"gene DDX5, 20 ug/mL",2.1 Fold
same,Fold Up- or Down-Regulation DEFB1,"gene DEFB1, 20 ug/mL",3.4 Fold
same,Fold Up- or Down-Regulation EPGN,"gene EPGN, 20 ug/mL",1.2 Fold
same,Fold Up- or Down-Regulation FGF2,"gene FGF2, 20 ug/mL",−2.1 Fold
same,Fold Up- or Down-Regulation FOS,"gene FOS, 20 ug/mL",15.9 Fold
same,Fold Up- or Down-Regulation G2E3,"gene G2E3, 20 ug/mL",4.1 Fold
same,Fold Up- or Down-Regulation GDF15,"gene GDF15, 20 ug/mL",1.7 Fold
same,Fold Up- or Down-Regulation GPADH,"gene GPADH (housekeeping), 20 ug/mL",−1.9 Fold
same,Fold Up- or Down-Regulation GPX2,"gene GPX2, 20 ug/mL",5.5 Fold
same,Fold Up- or Down-Regulation HBEGF,"gene HBEGF, 20 ug/mL",3.1 Fold
same,Fold Up- or Down-Regulation HECTD1,"gene HECTD1, 20 ug/mL",1.2 Fold
same,Fold Up- or Down-Regulation HERC1,"gene HERC1, 20 ug/mL",3.5 Fold
same,Fold Up- or Down-Regulation HIF1AN,"gene HIF1AN, 20 ug/mL",−1.6 Fold
same,Fold Up- or Down-Regulation HPRT1,"gene HPRT1 (housekeeping), 20 ug/mL",1.6 Fold
same,Fold Up- or Down-Regulation HSP90B1,"gene HSP90B1, 20 ug/mL",1.2 Fold
same,Fold Up- or Down-Regulation IFI44L,"gene IFI44L, 20 ug/mL",3.9 Fold
same,Fold Up- or Down-Regulation JUN,"gene JUN, 20 ug/mL",3.3 Fold
same,Fold Up- or Down-Regulation JUNB,"gene JUNB, 20 ug/mL",1.6 Fold
same,Fold Up- or Down-Regulation LTB4R,"gene LTB4R, 20 ug/mL",−1.3 Fold
same,Fold Up- or Down-Regulation MAFF,"gene MAFF, 20 ug/mL",−1.1 Fold
same,Fold Up- or Down-Regulation MAP1LC3B,"gene MAP1LC3B, 20 ug/mL",1.2 Fold
same,Fold Up- or Down-Regulation MAPK14,"gene MAPK14, 20 ug/mL",−1.7 Fold
same,Fold Up- or Down-Regulation MGAT1,"gene MGAT1, 20 ug/mL",−1.0 Fold
same,Fold Up- or Down-Regulation MGAT5,"gene MGAT5, 20 ug/mL",−1.8 Fold
same,Fold Up- or Down-Regulation MOGS,"gene MOGS, 20 ug/mL",−2.8 Fold
same,Fold Up- or Down-Regulation N4BP1,"gene N4BP1, 20 ug/mL",1.7 Fold
same,Fold Up- or Down-Regulation NFKBIA,"gene NFKBIA, 20 ug/mL",4.6 Fold
same,Fold Up- or Down-Regulation PELI1,"gene PELI1, 20 ug/mL",−1.5 Fold
same,Fold Up- or Down-Regulation PLAUR,"gene PLAUR, 20 ug/mL",2.1 Fold
same,Fold Up- or Down-Regulation PPP1R15A,"gene PPP1R15A, 20 ug/mL",3.2 Fold
same,Fold Up- or Down-Regulation PTGFRN,"gene PTGFRN, 20 ug/mL",−4.6 Fold
same,Fold Up- or Down-Regulation PTGS2,"gene PTGS2, 20 ug/mL",−1.1 Fold
same,Fold Up- or Down-Regulation PTX3,"gene PTX3, 20 ug/mL",1.1 Fold
same,Fold Up- or Down-Regulation REL,"gene REL, 20 ug/mL",1.6 Fold
same,Fold Up- or Down-Regulation RSAD2,"gene RSAD2, 20 ug/mL",1.9 Fold
same,Fold Up- or Down-Regulation SAMD9L,"gene SAMD9L, 20 ug/mL",1.3 Fold
same,Fold Up- or Down-Regulation SOD2,"gene SOD2, 20 ug/mL",1.2 Fold
same,Fold Up- or Down-Regulation SPRR2B,"gene SPRR2B, 20 ug/mL",2.4 Fold
same,Fold Up- or Down-Regulation TGFB1,"gene TGFB1, 20 ug/mL",−1.9 Fold
same,Fold Up- or Down-Regulation TNF,"gene TNF, 20 ug/mL",16.4 Fold
same,Fold Up- or Down-Regulation TNFAIP3,"gene TNFAIP3, 20 ug/mL",2.4 Fold
same,Fold Up- or Down-Regulation UBE2S,"gene UBE2S, 20 ug/mL",2.2 Fold
same,Fold Up- or Down-Regulation UBE3B,"gene UBE3B, 20 ug/mL",1.2 Fold
same,Fold Up- or Down-Regulation UBE4B,"gene UBE4B, 20 ug/mL",1.2 Fold
same,Fold Up- or Down-Regulation UBE20,"gene UBE20, 20 ug/mL",1.8 Fold
same,Fold Up- or Down-Regulation VCP,"gene VCP, 20 ug/mL",−2.0 Fold
same,Fold Up- or Down-Regulation VEGFA,"gene VEGFA, 20 ug/mL",1.5 Fold
